Measurements reported in US20090209512A1, “NEUROGENESIS INDUCER OR NEUROPATHY THERAPEUTIC AGENT COMPRISING ALKYL ETHER DERIVATIVE OR SALT THEREOF” (Toyama Chemical Co., Ltd., priority 2006, published 2009).

Assays:
[1] = test system: cultured neural stem cells; details: Proc. Natl. Acad. Sci. U.S.A., 2004, 101(47), pp. 16659-64; cited from earlier work
[2] = test system: cultured neural stem cells; assay: Effect on differentiation of cultured neural stem cell (Tuj1-positive cell ratio); format: cell-based, ICR mouse
Experimental: Cultured neural stem cells were prepared according to the partially modified method of Hirabayashi (Development, 2004, 131(12), p. 2791-2801). The cerebrum was removed from an ICR mouse embryo (embryonic day 14) and incubated in artificial cerebrospinal fluid (124 mM NaCl, 5 mM KCl, 1.3 mM MgCl2, 2 mM CaCl2, 26 mM NaHCO3, 10 mM D-Glucose, pH 7.4) containing 0.0625% trypsin and 0.1 mg/mL of DNaseI at 37° C. for 5 min. A trypsin inhibitor (final concentration: 0.35 mg/mL) was then added and the mixture was centrifuged at 800 rpm for 5 min. The obtained pellet was dispersed by pipetting in a neural stem cell culture medium (DMEM/F-12 culture medium containing 20 ng/mL basic fibroblast growth factor, 20 ng/mL epidermal growth factor and B27 supplement (Invitrogen)) to obtain single cell suspension. […]
After 3 days of culturing, the cells were washed with phosphate-buffered saline (PBS), fixed with 4% paraformaldehyde/phosphate buffer, treated with 0.3% Triton X-100/PBS solution at room temperature for 5 minutes, washed with PBS, and incubated with 0.5% skim milk at room temperature for 1 hour. […] The cells were washed with PBS and observed under fluorescence microscope, and the number of the Tuj1-positive cells emitting red fluorescence was counted, and its ratio against the total cell number was calculated as the differentiation ratio into neurons representing a neurogenesis inducing effect.

Male DBA/2J mice = assay: Novelty-suppressed feeding (NSF) test; format: in vivo; details: 10 mg/kg orally for 28 days
Experimental: The novelty-suppressed feeding (NSF) test (Santarelli et al., 2003, Science. 301: 805-9) was performed to assess antidepressant efficacy of T-817MA. Male DBA/2J mice (7 weeks old, 20-21 animals/group) were used. We administrated mice orally with T-817MA (10 mg/kg), or vehicle (distilled water) for 28 days before NSF test. At the time of testing, mice that had been food deprived for 24 hours were gently placed in a corner of a brightly lit arena (approximately 650 lux at floor of arena, 50×50×20 cm) for a maximum of 5 minutes. The floor was covered with approximately 2 cm of bedding. Pellet of food was attached by wire at the center of the arena. […] Statistical differences between vehicle group and T-817MA treated group were found by Dunnett test.

Row | Structure (SMILES) | Neurogenesis inducing effect in cultured neural stem cells [1] | Differentiation ratio compared with control group (neurogenesis inducing effect) ([2]; T-817MA 10 μM vs B27 supplemented DMEM/F-12 alone) | Differentiation ratio into neurons (%) (Ratio of Tuj1 positive cells) ([2]; T-817MA 10 μM, 3 days of culturing, B27-supplemented DMEM/F-12, control group 13.0) | NSF latency (mean) (Male DBA/2J mice; mice food deprived 24 hours, vehicle 227.2) | Latency to feed vs vehicle group (Male DBA/2J mice; P<0.01, Dunnett test)
1 | CCCC(CCC)C(=O)O [valproic acid] | show the neurogenesis inducing effect | – | – | – | –
2 | OC1CN(CCCOCCc2ccc3sccc3c2)C1 [T-817MA, 1-(3-(2-(1-benzothiophen-5-yl)ethoxy)propyl)azetidin-3-ol] | – | higher differentiation ratio | 27.4% | 145.5 s | significant decreased latency to feed
